Assay results published in patent US11247990B1, “Bicyclic fused pyridine compounds as inhibitors of TAM kinases” (ARRAY BIOPHARMA INC., priority 2017, dated 2022).

Experiments:
[1] = target: His-tagged recombinant human AXL cytoplasmic domain (Homo sapiens (Human), UniProt P30530); experiment: AXL Enzyme Assay (LanthaScreen Eu Kinase Binding, TR-FRET); conditions: averaged IC50
Description: (§1) Compounds of Formula I were screened for their ability to inhibit AXL kinase using Invitrogen's LanthaScreen™ Eu Kinase Binding technology. […] After a 60-minute incubation at 22° C., the reaction was measured using a PerkinElmer EnVision multimode plate reader via TR-FRET dual wavelength detection, and the percent of control (POC) was calculated using a ratiometric emission factor. […] The POC values are fit to a 4 parameter logistic curve and the IC50 value is point where the curve crosses 50 POC.

[2] = target: GST-tagged recombinant human TYRO3 kinase domain (Homo sapiens (Human), UniProt Q06418); experiment: TYRO3 Enzyme Assay (LanthaScreen Eu Kinase Binding, TR-FRET); conditions: averaged IC50
Description: as §1, with “TYRO3” for “AXL”, “(POC)” for “(POC) was”, “were” for “are”

His-tagged recombinant human AXL cytoplasmic domain, sequence (P30530 473-894): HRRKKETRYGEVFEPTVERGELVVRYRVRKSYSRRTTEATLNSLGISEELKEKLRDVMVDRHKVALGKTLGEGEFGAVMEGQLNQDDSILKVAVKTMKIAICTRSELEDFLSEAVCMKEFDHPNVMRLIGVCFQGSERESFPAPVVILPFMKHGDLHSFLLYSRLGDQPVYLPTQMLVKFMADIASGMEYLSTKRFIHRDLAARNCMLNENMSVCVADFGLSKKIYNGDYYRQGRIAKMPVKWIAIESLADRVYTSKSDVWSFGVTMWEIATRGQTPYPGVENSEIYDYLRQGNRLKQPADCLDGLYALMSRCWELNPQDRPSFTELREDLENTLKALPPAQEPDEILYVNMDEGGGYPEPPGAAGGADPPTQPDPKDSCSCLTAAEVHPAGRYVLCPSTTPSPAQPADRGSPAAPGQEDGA
GST-tagged recombinant human TYRO3 kinase domain, sequence (Q06418 518-790): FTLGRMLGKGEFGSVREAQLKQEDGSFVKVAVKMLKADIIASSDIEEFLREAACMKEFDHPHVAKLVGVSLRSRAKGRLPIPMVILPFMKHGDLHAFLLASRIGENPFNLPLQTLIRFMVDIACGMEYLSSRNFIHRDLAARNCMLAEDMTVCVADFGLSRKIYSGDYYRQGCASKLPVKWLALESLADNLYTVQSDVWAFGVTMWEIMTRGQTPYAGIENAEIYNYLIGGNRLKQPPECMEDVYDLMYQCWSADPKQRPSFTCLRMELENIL

Compound	IC50 [1] [nM]	IC50 [2] [nM]
CNc1cc2c(cn1)c(-c1cnn(C)c1)nn2[C@H]1CC[C@@H](Oc2cccnc2C(=O)N(C)C)CC1 [Example 277, N,N-dimethyl-3-(((1s,4s)-4-(3-(1-methyl-1H-pyrazol-4-yl)-6-(methylamino)-1H-pyrazolo[4,3-c]pyridin-1-yl)cyclohexyl)oxy)picolinamide]	–	1000 to 10000
CNc1cc2c(cn1)c(-c1cnn(C)c1)nn2[C@H]1CC[C@@H](Oc2cccc(OCC(F)(F)F)n2)CC1 [Example 302, N-methyl-3-(1-methyl-1H-pyrazol-4-yl)-1-((1s,4s)-4-((6-(2,2,2-trifluoroethoxy)pyridin-2-yl)oxy)cyclohexyl)-1H-pyrazolo[4,3-c]pyridin-6-amine]	–	1000 to 10000
Cn1cc(-c2nn([C@H]3CC[C@@H](Oc4cn(C)nc4C(F)(F)F)CC3)c3cc(Nc4ccccc4)ncc23)cn1 [Example 303, 3-(1-methyl-1H-pyrazol-4-yl)-1-((1s,4s)-4-((1-methyl-3-(trifluoromethyl)-1H-pyrazol-4-yl)oxy)cyclohexyl)-N-phenyl-1H-pyrazolo[4,3-c]pyridin-6-amine]	–	< 10
Cn1cc(-c2nn([C@H]3CC[C@@H](Oc4cccnc4C(F)(F)F)CC3)c3cc(Nc4ccccc4)ncc23)cn1 [Example 304, 3-(1-methyl-1H-pyrazol-4-yl)-N-phenyl-1-((1s,4s)-4-((2-(trifluoromethyl)pyridin-3-yl)oxy)cyclohexyl)-1H-pyrazolo[4,3-c]pyridin-6-]	–	< 10
Cn1cc(-c2nn([C@H]3CC[C@@H](Oc4ncccc4C(F)(F)F)CC3)c3cc(Nc4ccccc4)ncc23)cn1 [Example 306, 3-(1-methyl-1H-pyrazol-4-yl)-N-phenyl-1-((1s,4s)-4-((3-(trifluoromethyl)pyridin-2-yl)oxy)cyclohexyl)-1H-pyrazolo[4,3-c]pyridin-6-amine]	1000 to 10000	–
CCNc1cc2c(cn1)c(C1CCCC1)nn2[C@H]1CC[C@@H](Oc2nccc(C(F)(F)F)c2F)CC1 [Example 321, 3-cyclopentyl-N-ethyl-1-((1s,4s)-4-((3-fluoro-4-(trifluoromethyl)pyridin-2-l)oxy)cyclohexyl)-1H-pyrazolo[4,3-c]pyridin-6-amine]	–	1000 to 10000
CCNc1cc2c(cn1)c(C1CCCCC1)nn2[C@H]1CC[C@@H](Oc2nccc(C(F)(F)F)c2F)CC1 [Example 322, 3-cyclohexyl-N-ethyl-1-((1s,4s)-4-((3-fluoro-4-(trifluoromethyl)pyridin-2-yl)oxy)cyclohexyl)-1H-pyrazolo[4,3-c]pyridin-6-amine]	–	1000 to 10000
Cn1cc(-c2nn([C@H]3CC[C@@H](Oc4ccccc4F)CC3)c3cc(NCCC4CC4)ncc23)cn1 [Example 402, N-(2-cyclopropylethyl)-1-((1s,4s)-4-(2-fluorophenoxy)cyclohexyl)-3-(1-methyl-1H-pyrazol-4-yl)-1H-pyrazolo[4,3-c]pyridin-6-amine]	1000 to 10000	–
CNc1cc2c(cn1)c(-c1cnn(C)c1)nn2[C@H]1CC[C@@H](Oc2ccc(C(=O)N(C)C)cc2)CC1 [Example 457, N,N-dimethyl-4-(((1s,4s)-4-(3-(1-methyl-1H-pyrazol-4-yl)-6-(methylamino)-1H-pyrazolo[4,3-c]pyridin-1-yl)cyclohexyl)oxy)benzamide]	–	1000 to 10000
CCNc1cc2c(cn1)c(-c1cnn(C)c1)nn2[C@H]1CC[C@@H](Oc2ccc(C(=O)NC)cc2F)CC1 [Example 460, 4-(((1s,45)-4-(6-(ethylamino)-3-(1-methyl-1H-pyrazol-4-yl)-1H-pyrazolo[4,3-c]pyridin-1-yl)cyclohexyl)oxy)-3-fluoro-N-methylbenzamide]	< 10	–
CCNc1cc2c(cn1)c(-c1cnn(C)c1)nn2[C@H]1CC[C@H](Oc2cccc(F)c2)CC1 [Example 475, N-ethyl-1-((1r,4r)-4-(3-fluorophenoxy)cyclohexyl)-3-(1-methyl-1H-pyrazol-4-yl)-1H-pyrazolo[4,3-c]pyridin-6-amine]	–	1000 to 10000
Cn1cc(-c2nn([C@H]3CC[C@@H](Oc4cccc(F)c4F)CC3)c3cc(Nc4ccccc4)ncc23)cn1 [Example 486, 1-((1s,4s)-4-(2,3-difluorophenoxy)cyclohexyl)-3-(1-methyl-1H-pyrazol-4-yl)-N-phenyl-1H-pyrazolo[4,3-c]pyridin-6-amine]	1000 to 10000	–

Next, values leading:

IC50 [1] [nM]	IC50 [2] [nM]	Compound
< 10	–	CCn1nc(O[C@H]2CC[C@@H](n3nc(-c4ccc(CN5CCN(C)CC5)cc4)c4cnc(NC)cc43)CC2)ccc1=O [Example 79, 2-ethyl-6-(((1s,4s)-4-(6-(methylamino)-3-(4-((4-methylpiperazin-1-yl)methyl)phenyl)-1H-pyrazolo[4,3-c]pyridin-1-yl)cyclohexyl)oxy)pyridazin-3(2H)-one]
< 10	–	CNc1cc2c(cn1)c(-c1cnn(C)c1)nn2[C@H]1CC[C@@H](Oc2ccc(F)cc2CN(C)C)CC1 [Example 370, 1-((1s,4s)-4-(2-((dimethylamino)methyl)-4-fluorophenoxy)cyclohexyl)-N-methyl-3-(1-methyl-1H-pyrazol-4-yl)-1H-pyrazolo[4,3-c]pyridin-6-amine]
–	< 10	CCCNc1cc2c(cn1)c(-c1cnn(C)c1)nn2[C@H]1CC[C@@H](Oc2ccccc2F)CC1 [Example 405, 1-((1s,4s)-4-(2-fluorophenoxy)cyclohexyl)-3-(1-methyl-1H-pyrazol-4-yl)-N-propyl-1H-pyrazolo[4,3-c]pyridin-6-amine]
–	1000 to 10000	CNc1cc2c(cn1)c(-c1cnn(C)c1)nn2[C@H]1CC[C@@H](Oc2cccc(C(=O)N(C)C)c2)CC1 [Example 454]
–	1000 to 10000	CNc1cc2c(cn1)c(-c1cnn(C)c1)nn2[C@H]1CC[C@@H](Oc2cccc(C(=O)NC(C)C)c2)CC1 [Example 455, N-isopropyl-3-(((1s,4s)-4-(3-(1-methyl-1H-pyrazol-4-yl)-6-(methylamino)-1H-pyrazolo[4,3-c]pyridin-1-yl)cyclohexyl)oxy)benzamide]
–	1000 to 10000	CNc1cc2c(cn1)c(-c1cnn(C)c1)nn2[C@H]1CC[C@@H](Oc2ccc(C(=O)NC(C)C)cc2)CC1 [Example 458, N-isopropyl-4-(((1s,4s)-4-(3-(1-methyl-1H-pyrazol-4-yl)-6-(methylamino)-1H-pyrazolo[4,3-c]pyridin-1-yl)cyclohexyl)oxy)benzamide]
–	1000 to 10000	CNc1cc2c(cn1)c(-c1cnn(C)c1)nn2[C@H]1CC[C@@H](Oc2ccc(C(=O)NCCOC)cc2)CC1 [Example 459, N-(2-methoxyethyl)-4-(((1s,4s)-4-(3-(1-methyl-1H-pyrazol-4-yl)-6-(methylamino)-1H-pyrazolo[4,3-c]pyridin-1-yl)cyclohexyl)oxy)benzamide]
–	1000 to 10000	CNc1cc2c(cn1)c(-c1cnn(C)c1)nn2[C@H]1CC[C@@H](Oc2cccc(C(=O)NC(C)C)c2F)CC1 [Example 466, 2-fluoro-N-isopropyl-3-(((1s,4s)-4-(3-(1-methyl-1H-pyrazol-4-yl)-6-(methylamino)-1H-pyrazolo[4,3-c]pyridin-1-yl)cyclohexyl)oxy)benzamide]
